# Reference: PubChem BioAssay (NCI)
# “And” between values parts separate entries of the source, which are not always exact repeats. Equal entries are not always repeated.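 Values below derive from 48-hour exposures of cells grown in 96-well plates, with endpoints linearly interpolated between the two concentrations bracketing the appropriate inhibition level. Here, GI50 denotes the concentration required for 50% inhibition of growth. TGI: concentration producing complete growth inhibition.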
# Key:
# P388/ADR leukemia = experiment: NCI tumour cell line growth inhibition, 48 h
# P388 leukemia = experiment: NCI tumour cell line growth inhibition, 48 h
SMILES,TGI (P388/ADR leukemia),TGI (P388 leukemia),GI50 (P388/ADR leukemia) [µM],GI50 (P388 leukemia) [µM]
S=c1nc[nH]c2nc[nH]c12,548 µM,242 µM,–,–
CC(C)[C@](O)(C(=O)OCC1=CC[N+]2([O-])CC[C@@H](O)[C@@H]12)[C@H](C)O (some centres undefined),> 10000 µM,> 10000 µM,–,–
COc1ccc2[nH]c3c(C)c4cc[n+](C)cc4c(C)c3c2c1,> 56.2 µM and > 75 µM and 125 µM,19.1 µM and 10.8 µM and 16.5 µM,20.8,1.78
COC1=C(C)C(=O)C2=C(C1=O)C(CO)N1C(C#N)C3CC4C(C1C2N1CCOC41)N3C (centres undefined),> 100 µM,–,–,–
